≈ marks a conversion by molar mass, not a printed value. Where a SMILES comes first, the peptide text is derived from it. Where no end group is shown, it is not given here.
Tests used:
[1] = test system: P. acne; details: cited from earlier work
Source text: Table 1 Minimal inhibitory concentrations (MICs) of AMPs against selected bacteria, μg/mL. | column: From / P. acne

[2] = test system: E. faecium; details: cited from earlier work
Source text: Table 1 Minimal inhibitory concentrations (MICs) of AMPs against selected bacteria, μg/mL. | column: From / E. faecium

[3] = test system: E. coli; details: cited from earlier work
Source text: Table 1 Minimal inhibitory concentrations (MICs) of AMPs against selected bacteria, μg/mL. | column: From / E. coli

[4] = test system: P. aeroginosa; details: cited from earlier work
Source text: Table 1 Minimal inhibitory concentrations (MICs) of AMPs against selected bacteria, μg/mL. | column: From / P. aeroginosa

[5] = test system: K. pneumonia; details: cited from earlier work
Source text: Table 1 Minimal inhibitory concentrations (MICs) of AMPs against selected bacteria, μg/mL. | column: From / K. pneumonia

[6] = test system: Z. mobilis; format: cell-based, Zymomonas mobilis
Protocol: Z. mobilis strains, Zm6 (ATCC 29191), E. coli (ATCC 25404) and an S. aureus strain (DSM 20231) were subjected to screening for AMP resistance. Z. mobilis strains were routinely grown on the standard culture medium containing (per liter) 5 g of yeast extract, 1 g of KH2PO4, 1 g of (NH4) 2SO4, and 0.5 g of MgSO4·7H2O, supplemented with 40 mL of 50% glucose solution. E. coli was grown on LB medium, containing (per liter) 10 g of tryptone, 5 g of yeast extract, and 10 g of NaCl. S. aureus was grown on Mueller Hinton Broth, 21 g per 1 L, at 30 °C.
(§1) The quantification of antimicrobial resistance against various AMPs was conducted by monitoring the bacterial growth in the presence of peptides at serial dilutions. This assay was performed in 96-well plates using the Infinite® M200 PRO Multimode Microplate Reader from Tecan in Maennedorf, Switzerland, as described in our recent report. All bacterial strains were cultivated at 32 °C for 13–18 h at 200 rpm. Optical density measurements (λ = 550 nm) were automatically recorded at 10 min intervals. The antimicrobial resistance activity was quantified as the minimum inhibitory concentration (MIC), which represents the lowest peptide concentration capable of preventing the growth of bacterial cells.

[7] = test system: E. Cancerogenus; details: cited from earlier work
Source text: Table 1 Minimal inhibitory concentrations (MICs) of AMPs against selected bacteria, μg/mL. | column: From / E. Cancerogenus

[8] = test system: S. aureus; details: cited from earlier work
Source text: Table 1 Minimal inhibitory concentrations (MICs) of AMPs against selected bacteria, μg/mL. | column: From / S. aureus

[9] = test system: E. coli cell suspension (proton-dependent ATP synthase of the cytoplasmic membrane); experiment: ATP synthesis induced by artificial transmembrane pH gradient; format: cell-based, Escherichia coli; details: E. coli starved cells; 10 μM, added 5 min before pH shift of 3.5–4.0 units; luciferin–luciferase
Protocol: (§2) Here, we assumed that any effect the AMPs exerted on the pH-induced ATP synthesis indicated a direct interaction between the peptide and the cytoplasmic membrane. After the induction of a pH gradient of 3.5–4.0 units in cell suspensions of both Z. mobilis and E. coli, we observed an abrupt increase in the intracellular ATP concentration, reaching its maximum value within a time span between 30 sec and 1 min. The magnitude of the observed ATP concentration rise approximately corresponded to previously published values. […] When added in amounts below the threshold value (Figure 4a,b), peptides had no inhibitory effect on the ATP response. […] Yet, such an effect elicits a much stronger physiological response in E. coli than in Z. mobilis.
(§3) ATP synthase activity induced by an artificial pH gradient was measured in non-growing starved cell suspensions. For the preparation of non-growing cell suspension, cells were harvested in the late exponential phase, sedimented, washed, and resuspended in 100 mM potassium phosphate buffer (pH 7.0), to a biomass concentration of 1.5–2.0 mg dry wt /mL. […] For ATP determination, 20 μL samples were quenched in ice-cold 10% TCA and assayed by the standard luciferin–luciferase method using a TECAN Infinite 200Pro microplate reader (Tecan, Männedorf, Switzerland). […]

[10] = test system: Z. mobilis cell suspension (proton-dependent ATP synthase of the cytoplasmic membrane); experiment: as above; format: cell-based, Zymomonas mobilis; details: Z. mobilis starved cells; 10 μM, added 5 min before pH shift of 3.5–4.0 units; luciferin–luciferase
Protocol: as §2, §3

[11] = test system: S. aureus; experiment: Normalized inhibitory concentration (peptide molecules per cell); format: cell-based; details: added AMP normalized to inoculum size, calculated with E. coli cell size parameters
Source text: (§4) We noted, however, that there was a substantial difference between the specific cultivation conditions of Z. mobilis and the rest of the tested bacteria: Z. mobilis required a higher concentration of inoculum. A higher amount of biomass introduced at the start of cultivation might mitigate the antimicrobial effect of AMPs, since this decreases the number of peptide molecules available to penetrate the membrane of each individual cell. Indeed, it was shown that at least […] bound peptide molecules per bacterial cell are needed to kill it. […] For these experiments, we chose one Gram-positive and one Gram-negative model strain (S.aureus and E.coli, respectively) and two AMPs, RP556 and R10. […]
as §1, with “All bacterial strains were cultivated at 32 °C for 13–18 h at 200 rpm.” left out

[12] = test system: E. coli; experiment: as above; format: cell-based, Escherichia coli; details: added AMP normalized to inoculum size, calculated with E. coli cell size parameters
Source text: as §4
as §1, with “All bacterial strains were cultivated at 32 °C for 13–18 h at 200 rpm.” left out

[13] = test system: Z. mobilis; experiment: as above; format: cell-based, Zymomonas mobilis; details: added AMP normalized to inoculum size, calculated with E. coli cell size parameters
Source text: as §4
as §1, with “All bacterial strains were cultivated at 32 °C for 13–18 h at 200 rpm.” left out

| Molecule | MIC [1] [µg/mL] | MIC [2] [µg/mL] | MIC [3] [µg/mL] | MIC [4] [µg/mL] | MIC [5] [µg/mL] | MIC [6] [µg/mL] | MIC [7] [µg/mL] | MIC [8] [µg/mL] | effect on pH gradient-induced ATP synthesis [9] | effect on pH gradient-induced ATP synthesis [10] | Normalized inhibitory concentration [11] | Normalized inhibitory concentration [12] | Normalized inhibitory concentration [13] |
| --- | --- | --- | --- | --- | --- | --- | --- | --- | --- | --- | --- | --- | --- |
| CC(C)[C@H](NC(=O)[C@H](Cc1ccc(O)cc1)NC(=O)[C@H](Cc1c[nH]c2ccccc12)NC(=O)[C@H](CS)NC(=O)[C@H](Cc1ccccc1)NC(=O)CN)C(=O)N[C@@H](CS)C(=O)N[C@@H](C)C(=O)N[C@@H](CCCNC(=N)N)C(=O)N[C@@H](CCCNC(=N)N)C(=O)N[C@@H](CC(N)=O)C(=O)NCC(=O)N[C@@H](C)C(=O)N[C@@H](CCCNC(=N)N)C(=O)N[C@H](C(=O)N[C@@H](CS)C(=O)N[C@@H](Cc1ccc(O)cc1)C(=O)N[C@@H](CCCNC(=N)N)C(=O)N[C@@H](CCCNC(=N)N)C(=O)N[C@@H](CS)C(=O)N[C@@H](CC(N)=O)C(=O)O)C(C)C [AA139] (H-GFCWYVCARRNGARVCYRRCN-OH; N-terminus and C-terminus assumed) | 63.0 (≈ 24.7 µM) | 16.0 (≈ 6.26 µM) | 4.0 (≈ 1.57 µM) | 16.0 (≈ 6.26 µM) | 8.0 (≈ 3.13 µM) | 250.0 (≈ 97.9 µM) | 8.0 (≈ 3.13 µM) | 8.0 (≈ 3.13 µM) | – | – | – | – | – |
| N#CC(C#N)=NNc1cccc(Cl)c1 [ClCCP] | – | – | – | – | – | – | – | – | almost complete de-energization and a dramatic drop of the ATP yield | almost complete de-energization and a dramatic drop of the ATP yield | – | – | – |
| CC(C)C[C@H](NC(=O)[C@H](CS)NC(=O)[C@H](Cc1ccccc1)NC(=O)[C@@H](N)CCCCN)C(=O)N[C@@H](CCCCN)C(=O)N[C@@H](Cc1ccccc1)C(=O)N[C@@H](CS)C(=O)N[C@@H](Cc1ccccc1)C(=O)N[C@@H](CCCCN)C(=O)NCC(=O)N[C@@H](Cc1ccccc1)C(=O)N[C@@H](CS)C(=O)N[C@@H](Cc1ccccc1)C(=O)N[C@@H](CCCCN)C(=O)N[C@@H](C)C(=O)N[C@@H](CS)C(=O)NCC(=O)N[C@@H](CCCCN)C(=O)O [R11] (H-KFCLKFCFKGFCFKACGK-OH; N-terminus and C-terminus assumed) | 0.3 (≈ 0.142 µM) | 16.0 (≈ 7.6 µM) | 125.0 (≈ 59.4 µM) | 63.0 (≈ 29.9 µM) | 63.0 (≈ 29.9 µM) | 250.0 (≈ 119 µM) | 63.0 (≈ 29.9 µM) | 16.0 (≈ 7.6 µM) | – | – | – | – | – |
| CC[C@H](C)[C@H](NC(=O)CNC(=O)[C@H](CCCCN)NC(=O)[C@H](Cc1ccc(O)cc1)NC(=O)[C@H](CS)NC(=O)[C@@H](NC(=O)[C@H](CCCCN)NC(=O)[C@H](Cc1ccccc1)NC(=O)[C@H](CS)NC(=O)[C@H](Cc1c[nH]c2ccccc12)NC(=O)[C@@H](N)CCCNC(=N)N)C(C)C)C(=O)N[C@@H](CS)C(=O)N[C@@H](Cc1ccc(O)cc1)C(=O)N[C@@H](CCCCN)C(=O)N[C@@H](CCCCN)C(=O)N[C@@H](CS)C(=O)N[C@@H](CCCCN)C(=O)O [RP556] (H-RWCFKVCYKGICYKKCK-OH; N-terminus and C-terminus assumed) | 2.0 (≈ 0.927 µM) | 2.0 (≈ 0.927 µM) | 4.0 (≈ 1.85 µM) | 2.0 (≈ 0.927 µM) | 4.0 (≈ 1.85 µM) | – | 4.0 (≈ 1.85 µM) | 1.0 (≈ 0.464 µM) | – | – | 2.43 × 10^7 peptide molecules per cell | 2.93 × 10^7 peptide molecules per cell | 1.68 × 10^10 peptide molecules per cell |
| FAKALKALLKALKAL [Oligo10] | 2.0 | 16.0 | 16.0 | 63.0 | 63.0 | 31.0 | 63.0 | 4.0 | – | – | – | – | – |
| IAKKFWKKFWKFWKIFKKIA [R12] | 0.5 | 16.0 | 8.0 | 4.0 | 31.0 | 63.0 | 31.0 | 8.0 | – | – | – | – | – |
| IAKKFWPKFWKFWKIFKKIA [R13] | 0.3 | 16.0 | 4.0 | 4.0 | 8.0 | 63.0 | 31.0 | 4.0 | – | – | – | – | – |
| KIAKRIWKRIWKILRRR [PA13] | 16.0 | 4.0 | 31.0 | 16.0 | 16.0 | 63.0 | 16.0 | 2.0 | – | – | – | – | – |
| KKIAKKFWKKFWKFWKIFKK [R10] | 0.5 | 4.0 | 2.0 | 2.0 | 8.0 | 31.0 | 16.0 | 4.0 | – | – | 1.98 × 10^8 peptide molecules per cell | 2.30 × 10^7 peptide molecules per cell | 6.58 × 10^9 peptide molecules per cell |
| KKIAKKFWKKFWKFWPKFWKIFKK [R14] | 1.0 | 8.0 | 16.0 | 4.0 | 4.0 | 63.0 | 16.0 | 8.0 | – | – | – | – | – |
| VKRWKKWWRKWKKWV [LZ1] | 8.0 | 4.0 | 31.0 | 8.0 | 16.0 | – | 16.0 | 2.0 | – | – | – | – | – |
